Results from US20190255073A1, “ESTERS OF 3-POLYAMINE DERIVATIVES OF BILE ACIDS FOR THE TREATMENT OF INFECTIONS” (VIRBAC, priority 2016, published 2019).
In brackets after ≈: the same amount, converted by molar mass.

How the values were obtained:
E. coli (1956) = test: MIC determination by microplate dilution, E. coli animal strain; type: cell-based, Escherichia coli; conditions: Escherichia coli, Gram-negative, Mueller-Hinton medium, 24 h, 37° C.
Description: (§1) 1) Preparation of the Preculture
(§2) A negative control (2 mL of sterile culture medium)
(§3) A positive control (1940 μL of culture medium+40 μL of DMSO+20 μL of bacterial suspension) from a thawed biological strain (the biological strains are stored at −80° C. in glycerol).
(§4) The tubes were incubated at 37° C. for 24 hours at 100 rpm.
(§5) The microorganisms were handled under a type L2 laboratory fume cupboard and, before any handling, a UV cycle was programmed and only sterile material was used. […] The chemical compounds to be tested were prepared in a DMSO/methanol mixture (50/50) at a concentration of 5 mg/mL.
(§6) 2) Preparation of the Microplate for the Determination of the Minimum Inhibitory Concentration (MIC)
(§7) After 24 hours of incubation, a measurement of the optical density was taken using a spectrophotometer at 600 nm, collecting 100 μL of the bacterial suspension diluted in 900 μL of the sterile culture medium. This test required the use of a 96-well plate and the required volume of the microbial suspension to be seeded was calculated for an OD corresponding to a value equal to 0.01 in each well. In this plate, the first line corresponded to the negative control (195 μL of sterile culture medium in each well), the second line to the positive control (seeded culture medium supplemented with 2% of DMSO), the third line was loaded twice with bacterial suspension, 8 μL of test product were placed in each well. Thereafter, a 0.5 cascade dilution was performed from this line.
(§8) The first column served as inhibition control. A sterile filter was then placed on the microplate, allowing the passage of gases but not of contaminants. The microplate was incubated at 37° C. under a humid atmosphere for 24 hours.
(§9) NB: The medium used is Mueller-Hinton (MH) medium for bacteria. All the tests were performed in duplicate.
(§10) 4) Reading of the Results
(§11) After incubation, the filter was replaced with a transparent film, and an OD reading was then taken in an iEMS plate spectrophotometer at 620 nm. Calculation of the minimum inhibitory concentration (MIC) was performed.

S. intermedius (1051997) = test: MIC determination by microplate dilution, S. intermedius animal strain; type: cell-based, Staphylococcus intermedius; conditions: Staphylococcus intermedius, Gram-positive, Mueller-Hinton medium, 24 h, 37° C.
Description: as §1, §2, §3, §4, §5, §6, §7, §8, §9, §10, §11

E. coli ATCC28922 = test: MIC determination by microplate dilution, E. coli human strain; type: cell-based, Escherichia coli; conditions: Escherichia coli, ATCC28922, Gram-negative, Mueller-Hinton medium, 24 h, 37° C.
Description: as §1, §2, §3, §4, §5, §6, §7, §8, §9, §10, §11

P. aeruginosa (1051575) [1] = test: MIC determination by microplate dilution, P. aeruginosa animal strain; type: cell-based, Pseudomonas aeruginosa; conditions: Pseudomonas aeruginosa, Gram-negative, Mueller-Hinton medium, 24 h, 37° C.
Description: as §1, §2, §3, §4, §5, §6, §7, §8, §9, §10, §11

P. aeruginosa (1051575) [2] = test: Potentiation of the doxycycline activity at 2 μg/mL; type: cell-based, Pseudomonas aeruginosa; conditions: in combination with doxycycline 2 μg/mL; 24 h, 37°
CHO-K1 cells = test: WST1 cytotoxicity test on CHO-K1 cells; type: cell-based, Chinese hamster; conditions: Cricetulus griseus, CHO-K1, 24 h, read-out: IC50 (μg/mL) CHO
Description: Test WST1 was used to measure the cytotoxic activity of the products. This is a colorimetric test which makes it possible to measure the viability and the degree of cell proliferation. It is based on cleavage of the colorless tetrazolium salts WST-1 (4-[3-(4-iodophenyl)-2-(4-nitrophenyl)-2H-5-tetrazolio]-1,3-benzene disulfonate) with mitochondrial dehydrogenases to the yellow-colored formazan derivative, which may be quantified by spectrophotometry at 420-480 nm.
The WST1 test was performed on Chinese hamster ovary cells. The CHO-K1 cells (ATCC, USA) are kept in culture on McCoy's 5A medium supplemented with 10% fetal calf serum, 2 mM of L-glutamine and a mixture of penicillin-streptomycin (100 U/ml: 10 μg/mL). The culture is incubated at 37° C. under an atmosphere enriched in CO2 (5%), and subcultured every two days.
The cells are transferred into 96-well plates (25 000 cells/mL) in whole McCoy's 5A medium, and maintained for 24 hours at 37° C. under a humid atmosphere enriched in CO2 (5%). Increasing concentrations of test products are added to the wells in double tests and 8 growth controls containing the cells in the medium alone are included in each series of tests. After 24 hours at 37° C. (5% CO2), the culture medium is removed, the cells are rinsed in phosphate buffer (PBS) and 50 μL of PBS containing 10% of reagent WST1 are added to each well. After 20 minutes of incubation at 37° C., the results are read by spectrophotometry at 450 nm.
The results are expressed in dose-response relationships, modeled by nonlinear regression analysis using the TableCurve software. The 50% inhibitory concentration (IC50) represents the concentration of product that is capable of reducing the cell viability by 50%.

E. faecalis ATCC29212 = test: MIC determination by microplate dilution, E. faecalis human strain; type: cell-based, Enterococcus faecalis; conditions: Enterococcus faecalis, ATCC29212, Gram-positive, Mueller-Hinton medium, 24 h, 37° C.
Description: as §1, §2, §3, §4, §5, §6, §7, §8, §9, §10, §11

S. aureus (340) = test: MIC determination by microplate dilution, S. aureus animal strain; type: cell-based, Staphylococcus aureus; conditions: Staphylococcus aureus, Gram-positive, Mueller-Hinton medium, 24 h, 37° C.
Description: as §1, §2, §3, §4, §5, §6, §7, §8, §9, §10, §11

S. aureus ATCC25923 = test: MIC determination by microplate dilution, S. aureus human strain; type: cell-based, Staphylococcus aureus; conditions: Staphylococcus aureus, ATCC25923, Gram-positive, Mueller-Hinton medium, 24 h, 37° C.
Description: as §1, §2, §3, §4, §5, §6, §7, §8, §9, §10, §11

P. aeruginosa ATCC27853 = test: MIC determination by microplate dilution, P. aeruginosa human strain; type: cell-based, Pseudomonas aeruginosa; conditions: Pseudomonas aeruginosa, ATCC27853, Gram-negative, Mueller-Hinton medium, 24 h, 37° C.
Description: as §1, §2, §3, §4, §5, §6, §7, §8, §9, §10, §11

SMILES: COC(=O)CC[C@@H](C)[C@H]1CCC2C3C(CC[C@@]21C)[C@@]1(C)CC[C@H](NCCCNCCCN)CC1C[C@@H]3O (stereo partly drawn) [(13), methyl 3β-norspermidinoursodeoxycholate]
- MIC (E. coli (1956)): 55 µg/mL (≈ 106 µM)
- MIC (S. intermedius (1051997)): 7 µg/mL (≈ 13.5 µM)
- MIC (E. coli ATCC28922): 55 µg/mL (≈ 106 µM)
- MIC (P. aeruginosa (1051575) [1]): 55 µg/mL (≈ 106 µM)
- MIC - P. aeruginosa (1051575): content of compound of formula (I) to restore the doxycycline activity (at 2 μg/mL) (P. aeruginosa (1051575) [2]): 7 µg/mL
- IC50 (CHO-K1 cells): 70 µg/mL (≈ 135 µM)
- MIC (E. faecalis ATCC29212): 28 µg/mL (≈ 53.9 µM)
- MIC (S. aureus (340)): 14 µg/mL (≈ 26.9 µM)
- MIC (S. aureus ATCC25923): 27 µg/mL (≈ 51.9 µM)
- MIC (P. aeruginosa ATCC27853): 28 µg/mL (≈ 53.9 µM)

SMILES: CC(C)OC(=O)CC[C@@H](C)[C@H]1CCC2C3CCC4C[C@@H](NCCCN(CCCN)CCCN)CC[C@]4(C)C3C[C@H](O)[C@@]21C (stereo partly drawn) [(28), isopropyl 3β-(tris(3-aminopropyl)amine)deoxycholate]
- MIC (E. coli (1956)): 30 µg/mL (≈ 49.6 µM)
- MIC (S. intermedius (1051997)): 8 µg/mL (≈ 13.2 µM)
- MIC (E. coli ATCC28922): 15 µg/mL (≈ 24.8 µM)
- MIC (P. aeruginosa (1051575) [1]): 30 µg/mL (≈ 49.6 µM)
- MIC - P. aeruginosa (1051575): content of compound of formula (I) to restore the doxycycline activity (at 2 μg/mL) (P. aeruginosa (1051575) [2]): 2 µg/mL
- IC50 (CHO-K1 cells): 85 µg/mL (≈ 141 µM)
- MIC (E. faecalis ATCC29212): 30 µg/mL (≈ 49.6 µM)
- MIC (S. aureus (340)): 15 µg/mL (≈ 24.8 µM)
- MIC (S. aureus ATCC25923): 15 µg/mL (≈ 24.8 µM)
- MIC (P. aeruginosa ATCC27853): 30 µg/mL (≈ 49.6 µM)

SMILES: COC(=O)CC[C@@H](C)[C@H]1CCC2C3C(CC[C@@]21C)[C@@]1(C)CC[C@H](NCCCNCCCN)CC1C[C@H]3O (stereo partly drawn) [(9), methyl 3β-norspermidinochenodeoxycholate]
- MIC (E. coli (1956)): 26 µg/mL (≈ 50 µM)
- MIC (S. intermedius (1051997)): 7 µg/mL (≈ 13.5 µM)
- MIC (E. coli ATCC28922): 26 µg/mL (≈ 50 µM)
- MIC (P. aeruginosa (1051575) [1]): 26 µg/mL (≈ 50 µM)
- MIC - P. aeruginosa (1051575): content of compound of formula (I) to restore the doxycycline activity (at 2 μg/mL) (P. aeruginosa (1051575) [2]): 3 µg/mL
- IC50 (CHO-K1 cells): 70 µg/mL (≈ 135 µM)
- MIC (E. faecalis ATCC29212): 26 µg/mL (≈ 50 µM)
- MIC (S. aureus (340)): 7 µg/mL (≈ 13.5 µM)
- MIC (S. aureus ATCC25923): 13 µg/mL (≈ 25 µM)
- MIC (P. aeruginosa ATCC27853): 26 µg/mL (≈ 50 µM)

SMILES: COC(=O)CC[C@@H](C)[C@H]1CCC2C3CCC4C[C@@H](NCCNCCNCCNCCNCCN)CC[C@]4(C)C3C[C@H](O)[C@@]21C (stereo partly drawn) [(20), methyl 3β-(pentaethylenehexamine)deoxycholate]
- MIC (E. coli (1956)): 14 µg/mL (≈ 22.5 µM)
- MIC (S. intermedius (1051997)): 1 µg/mL (≈ 1.61 µM)
- MIC (E. coli ATCC28922): 8 µg/mL (≈ 12.9 µM)
- MIC (P. aeruginosa (1051575) [1]): 8 µg/mL (≈ 12.9 µM)
- MIC - P. aeruginosa (1051575): content of compound of formula (I) to restore the doxycycline activity (at 2 μg/mL) (P. aeruginosa (1051575) [2]): 4 µg/mL
- IC50 (CHO-K1 cells): 90 µg/mL (≈ 145 µM)
- MIC (E. faecalis ATCC29212): 16 µg/mL (≈ 25.8 µM)
- MIC (S. aureus (340)): 6 µg/mL (≈ 9.66 µM)
- MIC (S. aureus ATCC25923): 4 µg/mL (≈ 6.44 µM)
- MIC (P. aeruginosa ATCC27853): 8 µg/mL (≈ 12.9 µM)

SMILES: COC(=O)CC[C@@H](C)[C@H]1CCC2C3C(CC[C@@]21C)[C@@]1(C)CC[C@H](NCCCN(C)CCCN)CC1C[C@H]3O (stereo partly drawn) [(37), methyl 3β-(bis(3-aminopropyl)methylamine)chenodeoxycholate]
- MIC (E. coli (1956)): 13 µg/mL (≈ 24.4 µM)
- MIC (S. intermedius (1051997)): > 107 µg/mL
- MIC (E. coli ATCC28922): 27 µg/mL (≈ 50.6 µM)
- MIC (P. aeruginosa (1051575) [1]): 13 µg/mL (≈ 24.4 µM)
- MIC - P. aeruginosa (1051575): content of compound of formula (I) to restore the doxycycline activity (at 2 μg/mL) (P. aeruginosa (1051575) [2]): 3 µg/mL
- IC50 (CHO-K1 cells): 115 µg/mL (≈ 215 µM)
- MIC (E. faecalis ATCC29212): 13 µg/mL (≈ 24.4 µM)
- MIC (S. aureus (340)): 27 µg/mL (≈ 50.6 µM)
- MIC (S. aureus ATCC25923): 27 µg/mL (≈ 50.6 µM)
- MIC (P. aeruginosa ATCC27853): 27 µg/mL (≈ 50.6 µM)

SMILES: COC(=O)CC[C@@H](C)[C@H]1CCC2C3CCC4C[C@@H](NCCCNCCCNCCCN)CC[C@]4(C)C3C[C@H](O)[C@@]21C (stereo partly drawn) [Compound (3), methyl 3β-norsperminodeoxycholate]
- MIC (E. coli (1956)): 14 µg/mL (≈ 24.3 µM)
- MIC (S. intermedius (1051997)): 1 µg/mL (≈ 1.73 µM)
- MIC (E. coli ATCC28922): 29 µg/mL (≈ 50.3 µM)
- MIC (P. aeruginosa (1051575) [1]): 2 µg/mL (≈ 3.47 µM)
- MIC - P. aeruginosa (1051575): content of compound of formula (I) to restore the doxycycline activity (at 2 μg/mL) (P. aeruginosa (1051575) [2]): 4 µg/mL
- IC50 (CHO-K1 cells): 6 µg/mL (≈ 10.4 µM)
- MIC (E. faecalis ATCC29212): 2 µg/mL (≈ 3.47 µM)
- MIC (S. aureus (340)): 4 µg/mL (≈ 6.93 µM)
- MIC (S. aureus ATCC25923): 2 µg/mL (≈ 3.47 µM)
- MIC (P. aeruginosa ATCC27853): 2 µg/mL (≈ 3.47 µM)
